target: T1, Human VAP-1 enzyme (Homo sapiens, UniProt Q16853); assay: Human VAP-1 enzyme inhibition test; assay type: biochemical; conditions: 1 h; compound 30 nM; 14C-benzylamine 100 μM; read-out: inhibition ratio (human VAP-1 enzyme)
T1 construct: purchased R&D Systems, Inc
T1 sequence (Q16853 1-763): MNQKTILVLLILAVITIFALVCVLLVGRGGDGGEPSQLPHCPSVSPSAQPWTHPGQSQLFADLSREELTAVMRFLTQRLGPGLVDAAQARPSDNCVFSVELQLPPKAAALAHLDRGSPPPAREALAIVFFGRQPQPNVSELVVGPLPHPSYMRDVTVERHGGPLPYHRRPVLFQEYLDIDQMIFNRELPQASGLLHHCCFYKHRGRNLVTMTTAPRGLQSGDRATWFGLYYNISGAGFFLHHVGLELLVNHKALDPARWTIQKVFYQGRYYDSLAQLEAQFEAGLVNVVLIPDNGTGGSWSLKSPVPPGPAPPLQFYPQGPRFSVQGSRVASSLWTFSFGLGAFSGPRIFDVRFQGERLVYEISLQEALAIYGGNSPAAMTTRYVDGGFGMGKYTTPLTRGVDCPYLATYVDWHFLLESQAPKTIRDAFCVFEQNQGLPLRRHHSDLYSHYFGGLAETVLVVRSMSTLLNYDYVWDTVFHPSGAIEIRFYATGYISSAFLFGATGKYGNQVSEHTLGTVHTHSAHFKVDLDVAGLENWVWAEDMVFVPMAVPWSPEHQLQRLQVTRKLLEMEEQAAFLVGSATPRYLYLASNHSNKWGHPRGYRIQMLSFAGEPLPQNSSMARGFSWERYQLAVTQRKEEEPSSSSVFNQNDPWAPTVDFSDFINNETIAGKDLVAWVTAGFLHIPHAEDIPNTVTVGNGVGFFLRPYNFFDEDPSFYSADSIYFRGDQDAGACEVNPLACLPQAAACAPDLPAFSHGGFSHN
Outline: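 Recombinant human VAP-1 pre-incubated 20 min at room temperature with compound in DMSO, then reacted with 14C-benzylamine (100 μM final) 1 h at 37 °C. Citric acid stop; oxidized product extracted into toluene/ethyl acetate and counted by liquid scintillation. Inhibition ratio relative to DMSO-only activity.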

inhibition at 0.03 µM [%]	Structure (SMILES)
≥ 50	CON=C1CN(c2ncc(-c3cccc(COC(=O)NC(=N)N)c3F)cc2F)C1 [Example 36, 2-fluoro-3-{5-fluoro-6-[3-(methoxyimino)azetidin-1-yl]pyridin-3-yl}benzyl carbamimidoylcarbamate]
≥ 50	[2H]C([2H])([2H])ON=C1CN(c2ncc(-c3cccc(COC(=O)NC(=N)N)c3F)cc2F)C1 [Example 37, 2-fluoro-3-(5-fluoro-6-{3-[(methoxy-d3)imino]azetidin-1-yl}pyridin-3-yl)benzyl carbamimidoylcarbamate]

The next lines start with the molecule.

Structure (SMILES)	inhibition at 0.03 µM [%]
N=C(N)NC(=O)OCc1cccc(-c2cnc(N3CC(=NOCCC(O)CO)C3)c(F)c2)c1F (centres unmarked) [Example 95, 3-(6-{3-[(3,4-Dihydroxybutoxy)imino]azetidin-1-yl}-5-fluoropyridin-3-yl)-2-fluorobenzyl carbamimidoylcarbamate]	≥ 50
N=C(N)NC(=O)OCc1cccc(-c2cnc(N3CC(=NOCC(CO)CO)C3)c(F)c2)c1F [Example 96, 2-Fluoro-3-{5-fluoro-6-[3-{[3-hydroxy-2-(hydroxymethyl)propoxy]imino}azetidin-1-yl]pyridin-3-yl}benzyl carbamimidoylcarbamate]	≥ 50
N=C(N)NC(=O)OCc1cccc(-c2cnc(N3CC(=NOCC(F)CO)C3)nc2)c1F (centres unmarked) [Example 102, 2-Fluoro-3-(2-{3-[(2-fluoro-3-hydroxypropoxy)imino]azetidin-1-yl}pyrimidin-5-yl)benzyl carbamimidoylcarbamate]	≥ 50

From patent US10759781B2, “Substituted guanidine derivatives” (UBE INDUSTRIES, LTD., priority 2015, dated 2020)
